System: Pityrosporum ovale
Test: agar diffusion inhibition-zone test (Hemmhof-Test)
Assay type: cell-based
Protocol: TY-Medium 10 g Trypton + 5 g Hefeextrakt + 10 g NaCl, aufgelöst in 1000 ml H₂O, gepuffert auf pH 7,4 , autoklaviert. Testverbindung 1: Polyoxyethylen-20-stearylether Testverbindung 2: Polyoxyethylen-20-isostearylalkohol Testverbindung 3: Polyoxyethylen-21-stearylalkohl Testverbindung 4: Polyoxyethylen-5-cetyl/stearylether Testverbindung 5: Polyoxyethylen-25-Fettalkohol Testverbindung 6: Polyoxyethylen-6-cetyl/stearylether Testverbindung 7: Polyoxyethylen-C₁₂-C₁₅-Alkylether Pityrosporum ovale, isoliert von drei Patienten mit Pityrosporum-Follikulitis, Pityriasis versicolor oder seborrhoischem Ekzem wurde in einer Mischung aus 50 % TY-Medium, 30 % Olivenöl und 20 % Tween 80 suspendiert. Die drei verschiedenen Hefestämme wurden in drei parallelen Ansätzen auf einer Selektivagarplatte für pathogene Pilze (Merck AG, Darmstadt) gleichmäßig ausgespatelt. Mit Hilfe steriler Korkbohrer wurden in jede Platte mehrere kreisrunde Vertiefungen gestanzt, In die Vertiefungen mit einem Durchmesser von 5 mm wurden jeweils 25 µl der Testlösungen gegeben. Die Testlösungen stellten 1%-ige und 10%-ige Lösungen der Testsubstanzen in Ethanol dar.
Nach dreistündiger Inkubation bei 37° C wurde das verdunstete Lösungsmittel durch je 25 µl Jojobaöl ersetzt und die Platten anschließend unter Beibehaltung der Wachstumsbedingungen drei Tage inkubiert. Während dieser Zeit diffundierten die Testsubstanzen in den die Vertiefungen umgebenden Nährboden.
Antimycotisch wirksame Testverbindungen zeigten nach dreitägiger Inkubation einen mehr oder weniger deutlichen konzentrischen Hemmhof um die Vertiefungen. Die Größe dieser Hemmhöfe, wiedergegeben in Tabelle 1, ist bei vergleichbarer Substanzkonzentration ein Maß für die antimycotische Wirksamkeit der Testverbindungen. Tabelle 1
Testverbindung 8 : Polyoxyethylen-[…]-Dodecylether Testverbindung 9 : Polyoxyethylen-20-Stearylether Testverbindung 10: Polyoxyethylen-20-isostearylalkohol Testverbindung 11: Polyoxyethylen-21-stearylalkohol Testverbindung 12: Polyoxyethylen-5-Cetyl/stearylether Testverbindung 13: Polyoxyethylen-25-Fettalkohol Testverbindung 14: Polyoxyethylen-6-Cetyl/Stearylether + Stearylalkohol Testverbindung 15: Polyoxyethylen-C₁₂-C₁₅-Alkylether Von den Testverbindungen 8 - 15 wurden ethanolische Lösungen der Konzentrationen 0,5 %, 1,0 %, 5,0 % und 10,0 % hergestellt und in den Hemmhof-Test eingeführt. Die Versuchsdurchführung entspricht in ihrem Ablaufe dem zu Versuch 1 geschilderten. Die Größe der betreffenden Hemmhöfe ist in Tabelle 2 wiedergegeben. Tabelle 2

[1] = Versuch 2, Konz. 0,5 % ethanolic solution, procedure as Versuch 1
[2] = Versuch 2, Konz. 1,0 % ethanolic solution, procedure as Versuch 1
[3] = Versuch 2, Konz. 5,0 % ethanolic solution, procedure as Versuch 1
[4] = Versuch 2, Konz. 10,0 % ethanolic solution, procedure as Versuch 1
[5] = Versuch 1, 1%-ige Lösung in Ethanol, 25 µl per 5 mm well, three days incubation at 37° C, three strains isolated from patients
[6] = Versuch 1, 10%-ige Lösung in Ethanol, 25 µl per 5 mm well, three days incubation at 37° C, three strains isolated from patients

Substance	mittlerer Hemmhof-Durchmesser [1]	mittlerer Hemmhof-Durchmesser [2]	mittlerer Hemmhof-Durchmesser [3]	mittlerer Hemmhof-Durchmesser [4]	mittlerer Hemmhof-Durchmesser [5]	mittlerer Hemmhof-Durchmesser [6]
Polyoxyethylen-5-Cetyl/stearylether [Testlösung 12]	11,0 mm	14,0 mm	16,5 mm	16,5 mm		
Polyoxyethylen-5-cetyl/stearylether [Testlösung 4]					8,5 mm	9,5 mm
Polyoxyethylen-6-cetyl/stearylether [Testlösung 6]					9,5 mm	14,0 mm
Polyoxyethylen-20-Stearylether [Testlösung 9]	10,7 mm	14,0 mm	18,7 mm	20,7 mm		
Polyoxyethylen-20-isostearylalkohol [Testlösung 2]					11,0 mm	12,0 mm
Polyoxyethylen-20-isostearylalkohol [Testlösung 10]	9,0 mm	9,0 mm	15,0 mm	17,3 mm		
Polyoxyethylen-20-stearylether [Testlösung 1]					10,0 mm	15,5 mm
Polyoxyethylen-21-stearylalkohl [Testlösung 3]					7,0 mm	11,0 mm
Polyoxyethylen-21-stearylalkohol [Testlösung 11]	10,0 mm	11,7 mm	12,0 mm	12,7 mm		
Polyoxyethylen-25-Fettalkohol [Testlösung 5]					7,0 mm	13,0 mm
Polyoxyethylen-25-Fettalkohol [Testlösung 13]	10,0 mm	11,5 mm	15,7 mm	18,3 mm		
Polyoxyethylen-??-Dodecylether [Testlösung 8]	14,0 mm	15,5 mm	18,0 mm	20,7 mm		
Polyoxyethylen-C₁₂-C₁₅-Alkylether [Testlösung 7]					9,5 mm	15,0 mm
Polyoxyethylen-C₁₂-C₁₅-Alkylether [Testlösung 15]	9,0 mm	12,7 mm	17,0 mm	20,0 mm		

Reference: patent EP0592876A1, “Antimycotic dermatological and cosmetic compositions” (Beiersdorf Aktiengesellschaft, priority 1992, dated 1994)
